Structures can show the parent of a compound that is named as a salt.
Target: T1, Human recombinant enteropeptidase (Homo sapiens, UniProt P98073)
T1 construct: purchased ITSI-Biosciences LLC #REN-260
Assay: Human enteropeptidase inhibitory activity (Test Example 1)
Type: biochemical
Details: 3.3 μM test compound, inhibition rate from fluorescence intensity at 2 hours after the start of the reaction; for inhibition at 3.3 µM: read-out: 3.3 μM Inhibition
Experimental: Human recombinant enteropeptidase (#REN-260, ITSI-Biosciences LLC) was diluted with an assay buffer (50 mM Tricine, pH 8.0, 0.01 (w/v) %, Tween 20, 10 mM CaCl2) to prepare a 24 mU/mL enzyme solution. Subsequently, 5FAM-Abu-Gly-Asp-Asp-Asp-Lys-Ile-Val-Gly-Gly-Lys(CPQ2)-Lys-Lys-NH2 (SEQ ID NO: 1, purity: 97.2%, CPC Scientific Inc.) was diluted with the assay buffer to prepare a 2.1 μM substrate solution. A test compound is dissolved in DMSO into a 1 mM solution, and the solution was diluted by 100-fold with the assay buffer to give a compound solution. To a 384-well black plate (#784076, Greiner Bio-One), 5 μL of the compound solution and 5 μL of the substrate solution were added and mixed, and 5 μL of the enzyme solution was then added to the mixture, followed by mixing to start the reaction. The fluorescence intensity was measured with a fluorescence plate reader EnVision (The Perkin-Elmer Corp.) at an excitation wavelength of 485 nm and a fluorescence wavelength of 535 nm. The same reaction as above except that the test compound was not contained was performed (test compound non-addition group). Furthermore, the same reaction as above except that the test compound and the enzyme were not contained was performed (control group). The inhibition rate was calculated using the fluorescence intensity at 2 hours after the start of the reaction by the following expression: Inhibition rate (%)=(1−((fluorescence intensity of test compound addition group)−(fluorescence intensity of control group))/((fluorescence intensity of test compound non-addition group)−(fluorescence intensity of control group)))×100

T1 sequence (P98073 whole entry): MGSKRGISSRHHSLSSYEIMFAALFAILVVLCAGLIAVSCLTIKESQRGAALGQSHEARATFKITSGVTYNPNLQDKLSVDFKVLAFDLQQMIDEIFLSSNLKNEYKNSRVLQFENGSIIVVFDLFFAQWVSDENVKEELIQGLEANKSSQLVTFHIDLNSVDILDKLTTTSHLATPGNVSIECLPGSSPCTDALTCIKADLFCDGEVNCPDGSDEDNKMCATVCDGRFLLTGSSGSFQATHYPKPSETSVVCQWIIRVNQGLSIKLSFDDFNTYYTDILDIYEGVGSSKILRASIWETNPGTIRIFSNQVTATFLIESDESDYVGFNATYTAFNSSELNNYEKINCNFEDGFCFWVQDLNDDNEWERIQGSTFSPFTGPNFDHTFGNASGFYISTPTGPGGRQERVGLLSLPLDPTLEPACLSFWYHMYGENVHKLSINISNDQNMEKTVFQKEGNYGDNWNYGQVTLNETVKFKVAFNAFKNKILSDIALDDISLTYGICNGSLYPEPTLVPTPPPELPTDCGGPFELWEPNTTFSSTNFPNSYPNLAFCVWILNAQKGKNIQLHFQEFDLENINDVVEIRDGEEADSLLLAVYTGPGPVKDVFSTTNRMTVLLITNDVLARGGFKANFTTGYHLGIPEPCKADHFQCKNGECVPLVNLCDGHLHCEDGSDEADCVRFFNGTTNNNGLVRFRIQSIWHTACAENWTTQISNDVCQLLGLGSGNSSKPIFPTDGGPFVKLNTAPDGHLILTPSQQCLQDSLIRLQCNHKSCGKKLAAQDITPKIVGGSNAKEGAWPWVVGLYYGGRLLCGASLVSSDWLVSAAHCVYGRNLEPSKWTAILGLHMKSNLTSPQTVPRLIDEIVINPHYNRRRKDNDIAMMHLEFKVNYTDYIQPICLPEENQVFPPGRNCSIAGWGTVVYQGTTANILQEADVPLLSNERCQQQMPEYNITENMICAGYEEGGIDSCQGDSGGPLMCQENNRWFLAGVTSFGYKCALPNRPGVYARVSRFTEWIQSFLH

| Compound | inhibition at 3.3 µM [%] | 3.3 μM Inhibition [%] |
| --- | --- | --- |
| N=C(N)Nc1ccc2c(c1)OCCCc1c(cccc1C(=O)N[C@@H](CC(=O)O)C(=O)O)OC2=O [Example 84, N-((3-carbamimidamido-14-oxo-7,8-dihydro-6H,14H-dibenzo[b,f][1,5]dioxecin-9-yl)carbonyl)-L-aspartic acid] | 101 |  |
| N=C(N)Nc1ccc2c(c1)OCCOc1cc(CCC(=O)N[C@@H](CC(=O)O)C(=O)O)ccc1OC2=O [Example 53, N-(3-(3-carbamimidamido-14-oxo-6,7-dihydro-14H-dibenzo[b,h][1,4,7]trioxecin-10-yl)propanoyl) aspartic acid] | 101 |  |
| N=C(N)Nc1ccc2c(c1)CCCOc1c(cccc1C(=O)N(CC(=O)O)[C@@H](Cc1ccc(O)cc1)C(=O)O)OC2=O [Example 92, N-((10-carbamimidamido-13-oxo-6,7,8,13-tetrahydro-dibenzo[b,f] [1,4]dioxecin-4-yl)carbonyl)-N-(carboxymethyl)-L-tyrosine] | 101 |  |
| N=C(N)Nc1ccc2c(c1)CCCOc1c(cccc1C(=O)N(CCC(=O)O)CCC(=O)O)OC2=O [Example 9, 3,3′-(((10-carbamimidamido-13-oxo-6,7,8,13-tetrahydro-dibenzo[b,f] [1,4]dioxecin-4-yl)carbonyl)imino) dipropanoic acid (non-preferred name)] | 101 |  |
| N=C(N)Nc1ccc2c(c1)OCCCc1c(CCC(=O)N[C@@H](CC(=O)O)C(=O)O)cccc1OC2=O [Example 79, N-(3-(3-Carbamimidamido-14-oxo-7,8-dihydro-6H,14H-dibenzo[b,f][1,5]dioxecin-9-yl)propanoyl)-L-aspartic acid] | 101 |  |
| N=C(N)Nc1ccc2c(c1)CCCOc1c(cccc1C(=O)NCCC(=O)O)OC2=O [Example 88, N-((10-carbamimidamido-13-oxo-6,7,8,13-tetrahydro-dibenzo[b,f] [1,4]dioxecin-4-yl)carbonyl)-beta-alanine] | 102 |  |
| N=C(N)Nc1ccc2c(c1)CCCCc1sc(C(=O)N[C@@H](CC(=O)O)C(=O)O)cc1OC2=O [Example 26, N-((9-Carbamimidamido-12-oxo-5,6,7,12-tetrahydro-4H-thieno[3,2-c][2]benzooxecin-2-yl)carbonyl)-L-aspartic acid] | 45 |  |
| N=C(N)Nc1ccc2c(c1)CCCOc1c(CCC(=O)N[C@@H](CCC(=O)O)C(=O)O)cccc1OC2=O [Example 93, N-(3-(10-carbamimidamido-13-oxo-6,7,8,13-tetrahydro-dibenzo[b,f] [1,4]dioxecin-4-yl)propanoyl)-L-glutamic acid] | 100 |  |
| N=C(N)Nc1ccc2c(c1)CCCCc1c(cccc1C(=O)NCCS(=O)(=O)O)OC2=O [Example 33, 2-(((3-carbamimidamido-14-oxo-5,7,8,14-tetrahydro-6H-dibenzo[b,h]oxecin-9-yl)carbonyl)amino) ethanesulfonic acid] | 98 |  |
| Cc1cc2c(c(C(=O)N[C@@H](CC(=O)O)C(=O)O)c1)OCCCc1cc(NC(=N)N)ccc1C(=O)O2 [Example 70, N-((10-carbamimidamido-2-methyl-13-oxo-6,7,8,13-tetrahydro-dibenzo[b,f] [1,4]dioxecin-4-yl)carbonyl)-L-aspartic acid] | 102 |  |
| N=C(N)Nc1ccc2c(c1)CCCOc1c(cccc1C(=O)N(CC(=O)O)C(CC(=O)O)CC(=O)O)OC2=O [Example 106, 3-(((10-Carbamimidamido-13-oxo-6,7,8,13-tetrahydrodibenzo[b,f][1,4]dioxecin-4-yl)carbonyl) (carboxymethyl)amino)pentanedioic acid] | 100 |  |
| N=C(N)Nc1ccc2c(c1)CCCOc1c(cccc1C(=O)NCC(=O)O)OC2=O [Example 89, N-((10-carbamimidamido-13-oxo-6,7,8,13-tetrahydro-dibenzo[b,f] [1,4]dioxecin-4-yl)carbonyl)glycine] | 101 |  |
| COc1cc2c(c(C(=O)N[C@@H](CC(=O)O)C(=O)O)c1)CCCCc1cc(NC(=N)N)ccc1C(=O)O2 [Example 67, N-((3-Carbamimidamido-11-methoxy-14-oxo-5,7,8,14-tetrahydro-6H-dibenzo[b,h]oxecin-9-yl)carbonyl)-L-aspartic acid] | 100 |  |
| N=C(N)Nc1ccc2c(c1)CCCOc1c(cccc1C(=O)N[C@@H](Cc1ccc(O)cc1)C(=O)O)OC2=O [Example 10, N-((10-carbamimidamido-13-oxo-6,7,8,13-tetrahydro-dibenzo[b,f] [1,4]dioxecin-4-yl)carbonyl)-L-tyrosine] | 101 |  |
| N=C(N)Nc1ccc2c(c1)CCCOc1c(cccc1C(=O)N(CC(=O)O)[C@@H](Cc1ccc(OCCN(CC(=O)O)CC(=O)O)cc1)C(=O)O)OC2=O [Example 108, O-(2-(Bis(carboxymethyl)amino)ethyl)-N-((10-carbamimidamido-13-oxo-6,7,8,13-tetrahydrodibenzo[b,f][1,4]dioxecin-4-yl)carbonyl)-N-(carboxymethyl)-L-tyrosine] | 100 |  |
| N=C(N)Nc1ccc2c(c1)CCCOc1c(cccc1C(=O)N(CC(=O)O)[C@@H](CC(=O)O)C(=O)O)OC2=O [Example 104, N-((10-Carbamimidamido-13-oxo-6,7,8,13-tetrahydrodibenzo[b,f][1,4]dioxecin-4-yl)carbonyl)-N-(carboxymethyl)-L-aspartic acid] | 100 |  |
| N=C(N)Nc1ccc2c(c1)OCCOc1c(CCC(=O)N[C@@H](CC(=O)O)C(=O)O)cccc1OC2=O [Example 52, N-(3-(3-Carbamimidamido-14-oxo-6,7-dihydro-14H-dibenzo[b,h][1,4,7]trioxecin-9-yl)propanoyl)aspartic acid trifluoroacetate] | 101 |  |
| N=C(N)Nc1ccc2c(c1)CCCOc1c(cccc1C(=O)N1CCC(C(=O)N[C@@H](CC(=O)O)C(=O)O)CC1)OC2=O [Example 101, N-((1-((10-carbamimidamido-13-oxo-6,7,8,13-tetrahydro-dibenzo[b,f] [1,4]dioxecin-4-yl)carbonyl)-piperidin-4-yl)carbonyl)-L-aspartic acid] | 100 |  |

Now from value to compound:

| inhibition at 3.3 µM [%] | 3.3 μM Inhibition [%] | Compound |
| --- | --- | --- |
| 99 |  | N=C(N)Nc1ccc2c(c1)CCCOc1c(cccc1C(=O)N(CC(=O)O)Cc1cccc(CN(CC(=O)O)CC(=O)O)c1)OC2=O [Example 116, N-(3-((Bis(carboxymethyl)amino)methyl)benzyl)-N-((10-carbamimidamido-13-oxo-6,7,8,13-tetrahydrodibenzo[b,f][1,4]dioxecin-4-yl)carbonyl)glycine] |
| 101 |  | N=C(N)Nc1ccc2c(c1)CCCOc1c(ccc(CCC(=O)O)c1C(=O)N(CC(=O)O)CC(=O)O)OC2=O [Example 119, 3-(4-(Bis(carboxymethyl)carbamoyl)-10-carbamimidamido-13-oxo-6,7,8,13-tetrahydrodibenzo[b,f][1,4]dioxecin-3-yl)propanoic acid] |
| 100 |  | N=C(N)Nc1ccc2c(c1)CCCOc1c(cccc1C(=O)N(CC(=O)O)[C@@H](Cc1ccccc1)C(=O)O)OC2=O [Example 133, N-((10-carbamimidamido-13-oxo-6,7,8,13-tetrahydro-dibenzo[b,f] [1,4]dioxecin-4-yl)carbonyl)-N-(carboxymethyl)-L-phenylalanine] |
| 100 |  | N=C(N)Nc1ccc2c(c1)CCCOc1c(ccc(CCC(=O)O)c1C(=O)N[C@@H](CC(=O)O)C(=O)O)OC2=O [Example 110, N-((10-Carbamimidamido-3-(2-carboxyethyl)-13-oxo-6,7,8,13-tetrahydrodibenzo[b,f][1,4]dioxecin-4-yl)carbonyl)-L-aspartic acid] |
|  | 98 | diethyl (4-(((10- carbamimidamido- 13-oxo-6,7,8,13- tetrahydro- dibenzo[b,f] [1,4]dioxecin-4- yl)carbonyl)amino) benzyl)phosphorate [Example 4] |
| 100 |  | N=C(N)Nc1ccc2c(c1)CCCOc1c(cccc1C(=O)N(CCC(=O)O)Cc1cccc(C(=O)O)c1)OC2=O [Example 134, 3-((((10-carbamimidamido-13-oxo-6,7,8,13-tetrahydro-dibenzo[b,f] [1,4]dioxecin-4-yl)carbonyl)(2-carboxyethyl)amino)methyl)benzoic acid] |
| 99 |  | COc1ccc(C[C@H](NC(=O)c2c(CCC(=O)O)ccc3c2OCCCc2cc(NC(=N)N)ccc2C(=O)O3)C(=O)O)cc1 [Example 112, N-((10-carbamimidamido-3-(2-carboxyethyl)-13-oxo-6,7,8,13-tetrahydro-dibenzo[b,f] [1,4]dioxecin-4-yl)carbonyl)-O-methyl-L-tyrosine] |
| 101 |  | N=C(N)Nc1ccc2c(c1)CCCOc1c(cccc1C(=O)N(CC(=O)O)[C@@H](Cc1ccc(OCCNCC(=O)O)cc1)C(=O)O)OC2=O [Example 121, N-((10-Carbamimidamido-13-oxo-6,7,8,13-tetrahydrodibenzo[b,f][1,4]dioxecin-4-yl)carbonyl)-N-(carboxymethyl)-O-(2-((carboxymethyl)amino)ethyl)-L-tyrosine] |
